Test results reported in patent publication US20210355106A1, “NEW AMINO-PYRIMIDONYL-PIPERIDINYL DERIVATIVES, A PROCESS FOR THEIR PREPARATION AND PHARMACEUTICAL COMPOSITIONS CONTAINING THEM” (LES LABORATOIRES SERVIER, priority 2018, published 2021).
Counter-ions that a name gives are not always drawn.

How the values were obtained:
[1] = tested on: Z138 mantle cell lymphoma tumour cell lines; assay: In vitro cytotoxicity, MTT assay; format: cell-based; details: Z138 cells, exposed to the test compounds for 96 hours
Description: The cytotoxicity studies were evaluated by MTT [3-(4,5-dimethylthiaxol-2-yl)-2,5-diphenyltetrazolium bromide|assay and carried out on Z138 mantle cell lymphoma tumour cell lines. The cells are distributed onto microplates and exposed to the test compounds for 96 hours. MTT is then added for 4 hours and converted by NAD(P)H-dependent cellular oxidoreductase enzymes in forma/an, which has a purple color. The viable cell number is proportional to the production of formazan salts and cell viability can be quantified by the absorbance of the solution at 540 nm with a spectrophotometer (Carmichael et al., Cancer Res. 1987, 47, 936-942).

USP7 = molecular target: T1, USP7 (Homo sapiens, UniProt Q93009, C315A); assay: Inhibition of USP7 by Fluorescence Intensity (FLINT) readings, Ubiquitin-Rhodamine-110 substrate; format: biochemical; details: 0.25 nM His-His-USP7 (aa208-560), 60 minutes at 30° C. preincubation; Ki determined from IC50 according to Cer et al.
T1 construct: 0.25 nM His-His-USP7 (aa208-560, |C315A|) was incubated with compound; His-His (N)
T1 sequence (Q93009 208-560 C315A): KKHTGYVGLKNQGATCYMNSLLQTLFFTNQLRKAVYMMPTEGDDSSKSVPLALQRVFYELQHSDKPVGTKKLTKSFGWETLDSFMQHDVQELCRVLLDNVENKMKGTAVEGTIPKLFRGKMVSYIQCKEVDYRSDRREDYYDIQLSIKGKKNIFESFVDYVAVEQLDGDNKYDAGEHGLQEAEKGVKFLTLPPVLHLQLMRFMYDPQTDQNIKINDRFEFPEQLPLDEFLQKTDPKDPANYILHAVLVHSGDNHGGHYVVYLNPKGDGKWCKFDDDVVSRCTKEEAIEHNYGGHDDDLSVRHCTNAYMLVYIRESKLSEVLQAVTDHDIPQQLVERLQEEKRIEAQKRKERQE
Description: USP7 activity was measured using Rhodamine-110 c-terminal labelled Ubiquitin as a substrate (UbiQ Bio), Incubation with USP7 results in the release of Rhodamine-110 leading to an increase in fluorescence which can be used in the continuous measurement of USP7 activity.
The USP7 reactions were performed in a 50 μL volume, in 384 well black solid low binding plates (Corning #3575). The reaction buffer consisted of 100 mM Bicine pH 8.0, 0.01% TritonX 100, 1 mM TCEP, and 10% DMSO.
0.25 nM His-His-USP7 (aa208-560, |C315A|) was incubated with compound (final concentration 10% DMSO) for 60 minutes at 30° C. The reaction was then initiated by the addition of 50) nM Ubiquitin-Rhodamine-110 substrate or 4 μM Ubiquitin-Rhodamine-110 substrate and the plate read every 3 minutes for 21 minutes to measure the release of Rhodamine-110. Fluorescence Intensity (FLINT) readings were measured using a Biomek Neo plate reader (Ex.485 nm, Em.535 nm).
The inhibition of increasing doses of compound was expressed as a percentage reduction in kinetic rate compared to the kinetic rates established between ‘DMSO only’ and ‘total inhibition’ controls (no USP7). The inhibitory concentrations that gave a 50% reduction in kinetic rate (IC50) were determined, from 11-point dose response curves, in XL-Fit using a 4-Parameter Logistic Model 205 (Sigmoidal Dose-Response Model). The K, values were determined from the IC50 values according to Cer et al. Nucleic Acids Res. 2009, July 1; 37 (WebServer issue): W441-W445.

Compound	IC50 [1] [nM]	Ki (USP7) [nM]	IC50 ([1]; Homo sapiens, Z-138) [nM]
5-amino-3-[(3SR,4SR)-3-fluoro-4-hydroxy-1-(3R,4R)-1-[4-methyl-2-(6-methyl-3-pyridyl)thiazole-5-carbonyl]-3-phenyl-piperidine-4-carbonyl]-4-piperidyl]methyl]-6-(4-fluorophenoxy)pyrimidin-4-one and 5-amino-3-[[(3RS,4RS)-3-fluoro-4-hydroxy-1-[(3R,4R)-1-[4-methyl-2-(6-methyl-3-pyridyl)thiazole-5-carbonyl]-3-phenyl-piperidine-4-carbonyl]-4-piperidyl]methyl]-6-(4-fluorophenoxy)pyrimidin-4-one [Example 198]	3.14	10.7	
5-amino-3-[[(3SR,4RS)-3-fluoro-4-hydroxy-1- (3R,4R)-1-[4-methyl-2-(6-methyl-3-pyridyl)thiazole-5-carbonyl]-3-phenyl-piperidine-4carbonyl]-4-piperidyl]methyl]-6-(4-fluorophenoxy)pyrimidin-4-one and 5-amino-3-[[(3RS,4SR)-3-fluoro-4-hydroxy-1-(3R,4R)-1-[4-methyl-2-(6-methyl-3-pyridyl)thiazole-5-carbonyl]-3-phenyl-piperidine-4-carbonyl]-4-piperidyl]methyl]-6-(4-fluorophenoxy)pyrimidin-4-one [Example 197]	9.7	14	
Nc1c(Oc2ccc(F)cc2)ncn(C[C@@]2(O)CCN(C(=O)[C@@H]3CCNC[C@H]3c3ccccc3)CC2(F)F)c1=O [Example 11, 5-amino-3-[[(4S)-3,3-difluoro-4-hydroxy-1-[(3R,4R)-3-phenylpiperidine-4-carbonyl]-4-piperidyl]methyl]-6-(4-fluorophenoxy)pyrimidin-4-one]		99.4	390
Cc1nccc(CN2CC[C@@H](C(=O)N3CC[C@](O)(Cn4cnc(Oc5ccc(F)cc5)c(N)c4=O)C(F)(F)C3)[C@H](c3ccccc3)C2)n1 [Example 13, 5-amino-3-{[(4S)-3,3-difluoro-4-hydroxy-1-{(3R,4R)-1-[(2-methylpyrimidin-4-yl)methyl]-3-phenylpiperidine-4-carbonyl]piperidin-4-yl]methyl)-6-(4-fluorophenoxy)pyrimidin-4(31)-one]		23.3	10.6
Nc1c(Oc2ccc(F)cc2)ncn(CC2(O)CCN(C(=O)[C@@H]3CCN(C(=O)Nc4nc(C(F)(F)F)cs4)C[C@H]3c3ccccc3)CC2)c1=O [Example 88, (3R,4R)-4-[4-[[5-amino-4-(4-fluorophenoxy)-6-oxo-pyrimidin-1-yl]methyl]-4-hydroxy-piperidine-1-carbonyl]-3-phenyl-N-[4-(trifluoromethyl)thiazol-2-yl]piperidine-1-carboxamide]		187	
Nc1c(Oc2ccc(F)cc2)ncn(CC2(O)CCN(C(=O)[C@@H]3CCN(C(=O)NCC(F)(F)F)C[C@H]3c3ccccc3)CC2)c1=O [Example 90]		345	
Nc1c(Oc2ccc(F)cc2)ncn(CC2(O)CCN(C(=O)[C@@H]3CCN(C4(c5ccc(F)cc5)COC4)C[C@H]3c3ccccc3)CC2)c1=O [Example 110, 5-amino-6-(4-fluorophenoxy)-3-[[1-[(3R,4R)-1-[3-(4-fluorophenyl)oxetan-3-yl]-3-phenyl-piperidine-4carbonyl]-4-hydroxy-4-piperidyl]methyl]pyrimidin-4-one]		182	
CC1(N2CC[C@@H](C(=O)N3CCC(O)(Cn4cnc(Oc5ccc(F)cc5)c(N)c4=O)CC3)[C@H](c3ccccc3)C2)COC1 [Example 111, 5-amino-6-(4-fluorophenoxy)-3-[[4-hydroxy-1-[(3R,4R)-1-(3-methyloxetan-3-yl)-3-phenyl-piperidine-4-carbonyl]-4-piperidyl]methyl]pyrimidin-4-one]		312	
CC(C)C1(N2CC[C@@H](C(=O)N3CCC(O)(Cn4cnc(Oc5ccc(F)cc5)c(N)c4=O)CC3)[C@H](c3ccccc3)C2)COC1 [Example 112, 5-amino-6-(4-fluorophenoxy)-3-[[4-hydroxy-1-[(3R,4R)-1-(3-isopropyloxetan-3-yl)-3-phenyl-piperidine-4-carbonyl]-4-piperidyl]methyl]pyrimidin-4-one]		203	
CC1(N2CC[C@@H](C(=O)N3CCC(O)(Cn4cnc(Oc5ccccc5)c(N)c4=O)CC3)[C@H](c3ccccc3)C2)COC1 [Example 113, 5-amino-3-[[4-hydroxy-1-[(3R,4R)-1-(3-methyloxetan-3-yl)-3-phenyl-piperidine-4-carbonyl]-4-piperidyl]methyl]-6-phenoxy-pyrimidin-4-one]		30.6	
Nc1c(Oc2ccccc2)ncn(CC2(O)CCN(C(=O)[C@@H]3CCN(C4(c5ccc(F)cc5)COC4)C[C@H]3c3ccccc3)CC2)c1=O [Example 115]		418	
Nc1c(Oc2ccc(F)cc2)ncn(CC2(O)CCN(C(=O)[C@@H]3CCN(C(=O)c4cccc(C5CCCNC5)c4)C[C@H]3c3ccccc3)CC2)c1=O (stereo partly drawn) [Example 116, 5-amino-6-(4-fluorophenoxy)-3-[(4-hydroxy-1-((3R,4R)-3-phenyl-1-[3-(piperidin-3-yl)benzoyl]piperidine-4-carbonyl}piperidin-4-yl)methyl]pyrimidin-4(3H)-one]		8	
Nc1c(Oc2ccc(F)cc2)ncn(CC2(O)CCN(C(=O)[C@@H]3CCN(S(=O)(=O)c4ccc(-c5cccs5)s4)C[C@H]3c3ccccc3)CC2)c1=O [Example 118, 5-amino-6-(4-fluorophenoxy)-3-[[4-hydroxy-1-[(3R,4R)-3-phenyl-[[5-(2thienyl)-2-thienyl]sulfonyl]piperidine-4-carbonyl]-4-piperidyl]methyl]pyrimidin-4-one]		123	
COc1cc(Oc2ncnc(OC[C@@]3(O)CCN(C(=O)[C@@H]4CCN(C(=O)OC(C)(C)C)C[C@H]4c4ccccc4)CC3(F)F)c2N)ccc1F [Example 135]		206	
CC(C)(C)OC(=O)N1CC[C@@H](C(=O)N2CCC(O)(Cn3cnc(Oc4cccnc4)c(N)c3=O)CC2)[C@H](c2ccccc2)C1 [Example 137, tert-butyl (3R,4R)-4-[4-[[5-amino-6-oxo-4-(3-pyridyloxy)pyrimidin-1-yl]methyl]-4-hydroxy-piperidine-1-carbonyl]-3-phenyl-piperidine-1-carboxylate]		226	
Cc1nc(-c2cccs2)sc1C(=O)N1CC[C@@H](C(=O)N2CCC(O)(Cn3cnc(Oc4ccc(F)cc4)c(N)c3=O)CC2)[C@H](c2ccccc2)C1 [Example 150, 5-amino-6-(4-fluorophenoxy)-3-[[4-hydroxy-1-[(3R,4R)-1-[4-methyl-2-(2-thienyl)thiazole-5-carbonyl]-3-phenyl-piperidine-4-carbonyl]-4-piperidyl]methyl]pyrimidin-4-one]		21.9	
Nc1c(Oc2cccnc2)ncn(CC2(O)CCN(C(=O)[C@@H]3CCNC[C@H]3c3ccccc3)CC2)c1=O [Example 151, 5-amino-3-[[4-hydroxy-1-[(3R,4R)-3-phenylpiperidine-4-carbonyl]-4-piperidyl]methyl]-6-(3-pyridyloxy)pyrimidin-4-one, hydrochloride]		214	
COc1ccc(C2(N3CC[C@@H](C(=O)N4CCC(O)(Cn5cnc(Oc6ccc(F)cc6)c(N)c5=O)CC4)[C@H](c4ccccc4)C3)COC2)cc1 [Example 156, 5-amino-6-(4-fluorophenoxy)-3-[[4-hydroxy-1-[(3R,4R)-1-[3-(4-methoxyphenyl)oxetan-3-yl]-3-phenyl-piperidine-4-carbonyl]-4-piperidyl]methyl]pyrimidin-4-one]		140	
Nc1c(Oc2ccc(F)cc2)ncn(CC2(O)CCN(C(=O)[C@@H]3CCN(C4(c5cccc(Br)c5)COC4)C[C@H]3c3ccccc3)CC2)c1=O [Example 170, 5-amino-3-[[1-[(3R,4R)-1-[3-(3-bromophenyl)oxetan-3-yl]-3-phenyl-piperidine-4-carbonyl]-4-hydroxy-4-piperidyl]methyl]-6-(4-fluorophenoxy)pyrimidin-4-one]		78.5	
COc1cc(Oc2ncn(C[C@@]3(O)CCN(C(=O)[C@@H]4CCN(Cc5ccncn5)C[C@H]4c4ccccc4)CC3(F)F)c(=O)c2N)ccc1F [Example 220, 5-amino-3-[[(4S)-3,3-difluoro-4-hydroxy-1-[(3R,4R)-3-phenyl-1-(pyrimidin-4-ylmethyl)piperidine-4-carbonyl]-4-piperidyl]methyl]-6-(4-fluoro-3-methoxy-phenoxy)pyrimidin-4-one]		98.2	
